Structures can show the parent of a compound that is named as a salt. Where two headings read alike, the source gives them in different places. Where only a bound is given, the exact number is not on record here.

For test [1], the target named is NMDA receptor (3H-MK801 binding, high and low affinity binding sites). The test can be described thus: 3H-MK801 (Dizocilpine) binding in vitro, rat whole brain membranes. The note with it: 5 nM 3H-MK-801, 2 hours, room temperature. Here is the method:
3H-MK801 (Dizocilpine) binding in vitro
The whole brain from 150-200 g male rats, without cerebellum and without medulla oblongata was dissected on ice. The tissue was then homogenized with an Ultra-Turrax maximum speed during 30 seconds at 4° C. in 50 volumes of cold Tris HCl 50 mM, EDTA disodium 10 mM, pH=7.4 buffer (wet weight/v). The homogenate was centrifuged at 48'000 x g (20'000 rpm, SS34, Sorvall RC5C) for 10 minutes. The pellet was rehomogenized with the same volume of buffer and the homogenate incubated at 37° C. for 10 minutes. After centrifugation as above, the pellet was rehomogenized with the same volume of buffer and frozen at -80° C. in 35 ml fractions for at least 16 hours and not more than 2 weeks.
For the binding experiment, the homogenate was centrifuged as above and the pellet was washed 3 times by homogenization in 25 volumes of cold Tris HCl 5mM, pH=7.4 buffer (Ultra-Turrax, maximum speed, 30 seconds) and centrifugation as above. The final pellet was rehomogenized in 25 volumes of buffer (original wet weight) and used as such in the assay. The final concentration of membrane in the assay was 20 mg/ml (wet weight).
The incubation was performed in the presence of 1 nM glutamate, glycine and spermidine. MK-801, (+)-[3-3H(N)], NEN (NET-972) 20Ci/mmol, was used at 5 nM final concentration. Non specific binding was determined in presence of 10ONM 1-[1-(2-Thienyl)cyclohexyl]piperidine (TCP). After 2 hours of incubation at room temperature, the suspension was filtered (Whatmann GF/B, soaked in 0.1% polyethylenimine for 2 hours) and washed 5 times with 3 ml of cold Tris HCl 5mM, pH=7.4 buffer. The air-dried filters were counted with 10 ml of Ultima-gold (Packard) in a Tri-Carb 2500 TR scintillation counter after agitation.
The radioactive decays per minute (DPM) were transformed in % of specific binding and these values were treated by a non linear regression calculation program (BINDING, H. Affolter, Switzerland) which provided the IC50 values for the low and high affinity binding sites (=concentrations producing half maximal inhibition at the respective sites). Each experiment was repeated at least three times and the final IC50 values were calculated as the mean +/-standard deviation of the individual experiments.
Reference: R. W. Ransom and N. L. Stec. Journal of Neurochemistry 51, 830-836, 1988.

A further test addresses T1, NMDAR1C--NMDAR2A (Rattus norvegicus, UniProt P35439+Q00959).
T1 construct: expressed in transfected cells; host or cells: Xenopus laevis oocytes, mRNA injected 1:1
The test can be described thus: Electrophysiology on recombinant NMDA receptors NMDAR1C-NMDAR2A expressed in Xenopus oocytes. In kind it is cell-based. The note with it: -80 mV, 70 μM Asp plus 2.5 μM Gly, > = highest tested concentration (solubility limit), read-out: Electrophysiology IC50 NMDAR 1C u. 2A. An excerpt:
(§1) Electrophysiology on recombinant NMDA receptors
(§2) cDNA clones coding for the subunits NMDAR1C and NMDAR2A of the NMDA receptor (see Hollmann and Heinemann, 1994, Annu. Rev. Neurosci. 17:31 for nomenclature of NMDA receptor subunits) were isolated from a rat brain λgt11 cDNA library as published elsewhere (Sigel et al., 1994, J. Biol. Chem. 269:8204). The clone for the subunit NMDAR2B of the rat brain NMDA receptor was obtained from S. Nakanishi (Kyoto, Japan). The cDNAs were transcribed, capped and poly(A^+)-tailed as described previously (Malherbe et al., 1990, Mol. Brain Res. 8: 199). Oocytes of South African frogs (Xenopus laevis) were used for expressing either a combination of the NMDAR1C and NMDAR2A subunits or the NMDAR1C and NMDAR2B subunits. Approximately 3 fmol of a 1:1 mixture of the respective mRNA species were injected into every oocyte. Four to five days later the ion current through the NMDA receptor channels was measured in voltage clamp experiments (see Methfessel et al., 1986, Pfliigers Arch. 407:577 for the methods of oocyte expression and voltage-clamping). The membrane potential was clamped to -80 mV and the receptors were activated by applying a modified Ringer's solution containing the NMDA-receptor agonists L-asparatate (Asp) and glycine (Gly). Different agonist concentrations were chosen for either subunit combination to account for the different agonist sensitivities of the two types of receptors (70 μM Asp plus 2.5 μM Gly for NMDARlC--NMDAR2A and 15 μM Asp plus 0.2 μM Gly for NMDAR1C--NMDAR2B). The agonists were applied for 15 s intervals once every 2.5 min by rapid superfusion of the oocyte with agonist containing solution and the amplitude of the agonist-evoked current was measured immediately before the end of each application. After a series of initial control applications, increasing concentrations of the antagonist to be tested were added to both, the basal Ringer's and the agonist containing solution. […] Figures for the IC50 in all other cases are arithmetic mean values of individual IC50 s determined by the logistic curve fits.

A further test addresses T2, NMDAR1C--NMDAR2B (Rattus norvegicus, UniProt P35439+Q00960).
T2 construct: expressed in transfected cells; host or cells: Xenopus laevis oocytes, mRNA injected 1:1
The test can be described thus: Electrophysiology on recombinant NMDA receptors NMDAR1C-NMDAR2B expressed in Xenopus oocytes. In kind it is cell-based. The following applies: -80 mV, 15 μM Asp plus 0.2 μM Gly, read-out: Electrophysiology IC50 NMDAR 1C u. 2B.
From the text: as §1, §2

Setting [2] is: high affinity binding site, read-out: 3H-MK801 IC50 high.
Setting [3] is: low affinity binding site, read-out: 3H-MK801 IC50 low.

T2 sequence (Q00960 27-1482, other chains not shown): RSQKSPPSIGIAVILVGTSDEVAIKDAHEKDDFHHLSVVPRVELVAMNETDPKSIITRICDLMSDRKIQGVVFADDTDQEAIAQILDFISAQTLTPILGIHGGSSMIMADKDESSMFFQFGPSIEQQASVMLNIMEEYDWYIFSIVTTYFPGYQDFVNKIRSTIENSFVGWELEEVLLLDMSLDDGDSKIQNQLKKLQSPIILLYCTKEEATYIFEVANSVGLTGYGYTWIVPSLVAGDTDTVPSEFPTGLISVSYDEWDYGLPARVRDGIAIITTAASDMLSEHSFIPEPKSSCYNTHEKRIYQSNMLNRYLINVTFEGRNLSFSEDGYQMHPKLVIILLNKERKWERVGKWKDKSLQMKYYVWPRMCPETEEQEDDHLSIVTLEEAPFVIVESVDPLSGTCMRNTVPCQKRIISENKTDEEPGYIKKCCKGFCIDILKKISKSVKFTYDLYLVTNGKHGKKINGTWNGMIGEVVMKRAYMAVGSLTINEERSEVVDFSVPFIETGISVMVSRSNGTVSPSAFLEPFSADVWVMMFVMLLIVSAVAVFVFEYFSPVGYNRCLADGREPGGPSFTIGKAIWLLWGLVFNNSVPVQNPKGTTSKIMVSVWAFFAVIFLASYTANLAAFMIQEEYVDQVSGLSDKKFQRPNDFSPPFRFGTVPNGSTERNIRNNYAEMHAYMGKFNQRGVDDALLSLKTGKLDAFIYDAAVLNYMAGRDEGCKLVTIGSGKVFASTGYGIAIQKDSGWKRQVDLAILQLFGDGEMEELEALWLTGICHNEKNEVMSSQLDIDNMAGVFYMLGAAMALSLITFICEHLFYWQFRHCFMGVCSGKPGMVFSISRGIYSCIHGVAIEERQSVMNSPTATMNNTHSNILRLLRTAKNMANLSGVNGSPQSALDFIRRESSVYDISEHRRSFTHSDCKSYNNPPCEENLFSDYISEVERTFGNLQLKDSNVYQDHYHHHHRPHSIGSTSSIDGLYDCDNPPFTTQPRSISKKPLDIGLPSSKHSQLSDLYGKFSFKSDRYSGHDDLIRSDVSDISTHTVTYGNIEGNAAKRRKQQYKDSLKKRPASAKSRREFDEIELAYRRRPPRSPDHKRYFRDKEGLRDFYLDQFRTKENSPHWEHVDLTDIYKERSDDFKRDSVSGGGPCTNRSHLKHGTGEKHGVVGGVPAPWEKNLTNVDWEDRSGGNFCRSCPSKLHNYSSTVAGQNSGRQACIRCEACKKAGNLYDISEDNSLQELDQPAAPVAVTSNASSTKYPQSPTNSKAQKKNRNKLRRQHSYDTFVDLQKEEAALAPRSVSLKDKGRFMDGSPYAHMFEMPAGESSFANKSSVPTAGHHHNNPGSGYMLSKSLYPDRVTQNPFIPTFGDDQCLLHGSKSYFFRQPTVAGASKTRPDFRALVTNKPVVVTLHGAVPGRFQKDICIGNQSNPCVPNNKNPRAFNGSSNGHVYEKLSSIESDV
T1 sequence (Q00959 23-1464, other chains not shown): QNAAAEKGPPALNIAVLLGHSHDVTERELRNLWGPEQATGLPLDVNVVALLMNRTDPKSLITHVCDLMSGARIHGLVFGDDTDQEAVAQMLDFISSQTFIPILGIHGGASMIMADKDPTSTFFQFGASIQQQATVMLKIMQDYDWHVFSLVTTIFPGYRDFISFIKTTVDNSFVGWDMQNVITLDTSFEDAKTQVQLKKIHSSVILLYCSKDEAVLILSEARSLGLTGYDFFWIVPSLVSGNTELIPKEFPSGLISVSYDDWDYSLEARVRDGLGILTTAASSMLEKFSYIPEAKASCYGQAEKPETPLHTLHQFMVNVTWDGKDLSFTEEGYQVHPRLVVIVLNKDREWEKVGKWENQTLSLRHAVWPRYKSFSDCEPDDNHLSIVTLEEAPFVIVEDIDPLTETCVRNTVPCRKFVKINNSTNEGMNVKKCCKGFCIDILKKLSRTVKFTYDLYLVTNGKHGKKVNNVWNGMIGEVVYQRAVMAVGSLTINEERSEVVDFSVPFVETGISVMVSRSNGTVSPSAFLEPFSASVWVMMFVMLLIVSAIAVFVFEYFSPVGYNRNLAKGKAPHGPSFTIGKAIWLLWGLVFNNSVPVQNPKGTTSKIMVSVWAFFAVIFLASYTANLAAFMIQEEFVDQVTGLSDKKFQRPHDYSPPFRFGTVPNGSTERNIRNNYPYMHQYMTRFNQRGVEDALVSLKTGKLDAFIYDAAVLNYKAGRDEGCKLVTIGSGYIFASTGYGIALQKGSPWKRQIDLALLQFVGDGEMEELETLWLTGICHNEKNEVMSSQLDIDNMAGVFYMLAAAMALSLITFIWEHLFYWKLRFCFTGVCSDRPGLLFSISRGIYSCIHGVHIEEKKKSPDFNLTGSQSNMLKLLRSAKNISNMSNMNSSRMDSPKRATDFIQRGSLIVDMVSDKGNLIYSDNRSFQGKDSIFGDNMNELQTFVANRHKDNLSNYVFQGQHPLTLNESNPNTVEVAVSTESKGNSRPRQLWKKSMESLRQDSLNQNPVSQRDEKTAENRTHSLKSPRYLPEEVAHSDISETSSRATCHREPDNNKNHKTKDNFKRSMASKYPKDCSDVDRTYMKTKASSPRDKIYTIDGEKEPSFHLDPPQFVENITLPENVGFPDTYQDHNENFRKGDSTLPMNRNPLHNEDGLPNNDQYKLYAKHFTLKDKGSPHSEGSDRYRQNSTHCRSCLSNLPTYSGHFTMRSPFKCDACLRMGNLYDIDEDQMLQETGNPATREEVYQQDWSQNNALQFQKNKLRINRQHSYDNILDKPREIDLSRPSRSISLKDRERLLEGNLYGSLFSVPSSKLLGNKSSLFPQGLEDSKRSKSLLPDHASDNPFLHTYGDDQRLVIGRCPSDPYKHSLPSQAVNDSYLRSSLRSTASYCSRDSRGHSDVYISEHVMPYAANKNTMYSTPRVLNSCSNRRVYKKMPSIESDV

For orientation: IC50 means the concentration that inhibits the measured activity by half. Turning to `NC(=O)Nc1ccc(OCC(O)CN2CC=C(c3ccc(F)cc3)CC2)cc1` (stereo not drawn) [A, [4-[3-[4-(4-Fluoro-phenyl)-3,6-dihydro-2H-pyridin-1-yl]-2-hydroxy-propoxy]-phenyl]-urea], the results for the IC50 in test [1] (setting [2]) and in test [1] (setting [3]) were 0.02 µM and 55 µM, respectively.
With `CS(=O)(=O)Nc1ccc(OCCCN2CC=C(c3ccc(F)cc3)CC2)cc1` [B, N-[4-[3-[4-(4-Fluoro-phenyl)-3,6-dihydro-2H-pyridin-1-yl]-propoxy]-phenyl]-methanesulfonamide hydrochloride (1:1)], the 50% inhibitory concentration (IC50) in test [1] (setting [2]) turned out to be 0.02 µM; in test [1] (setting [3]) it was 75 µM.
As for `CS(=O)(=O)Nc1ccc(OCC(O)CN2CC=C(c3ccc(F)cc3)CC2)cc1` (stereo not drawn) [C, N-[4-[3-[4-(4-Fluoro-phenyl)-3,6-dihydro-2H-pyridin-1-yl]-2-hydroxy-propoxy]-phenyl]-methanesulfonamide], the IC50 came out at 0.02 µM in test [1] (setting [2]) and 69 µM in test [1] (setting [3]).
Take `CCOC(=O)Nc1ccc(OCC(O)CN2CC=C(c3ccc(F)cc3)CC2)cc1` (stereo not drawn) [D, [4-[3-[4-(4-Fluoro-phenyl)-3,6-dihydro-2H-pyridin-1-yl]-2-hydroxy-propoxy]-phenyl]-carbamic acid ethyl ester]: the IC50 in test [1] (setting [2]) is 0.136 µM; in test [1] (setting [3]), 320 µM; at NMDAR1C--NMDAR2A it was above 20 µM; on NMDAR1C--NMDAR2B, 0.63 µM.
On to `CC(=O)Nc1ccc(OCCCN2CC=C(c3ccc(Cl)cc3)CC2)cc1` [E, N-[4-[3-[4-(4-chloro-phenyl)-3,6-dihydro-2H-pyridin-1-yl]-propoxy]-phenyl]-acetamide], for which the IC50 came out at 0.2 µM in test [1] (setting [2]) and 88 µM in test [1] (setting [3]).
With `CC(=O)Nc1ccc(OCCCN2CC=C(c3ccc(F)cc3)CC2)cc1` [F], the results for the IC50 in test [1] (setting [2]) and in test [1] (setting [3]) were 0.2 µM and 85 µM, respectively.
As to `CS(=O)(=O)Nc1ccc(OCCN2CC=C(c3ccc(F)cc3)CC2)cc1` [G, N-[4-[2-[4-(4-Fluoro-phenyl)-3,6-dihydro-2H-pyridin-1-yl]-ethoxy]-phenyl]-methanesulfonamide], the IC50 in test [1] (setting [2]) is 0.236 µM; in test [1] (setting [3]) it was 24 µM; on NMDAR1C--NMDAR2A it was above 30 µM; on NMDAR1C--NMDAR2B, 0.8 µM.
For `NC(=O)c1ccc(OCC(O)CN2CC=C(c3ccc(F)cc3)CC2)cc1` (stereo not drawn) [H], the half-maximal inhibitory concentration (IC50) in test [1] (setting [2]) was 0.33 µM; in test [1] (setting [3]) it was 40 µM; on NMDAR1C--NMDAR2A it was above 30 µM; on NMDAR1C--NMDAR2B, 0.71 µM.
In the case of `CC(=O)Nc1ccc(OCC(O)CN2CC=C(c3ccccc3)CC2)cc1` (stereo not drawn) [I], the figures for the IC50 in test [1] (setting [2]) and in test [1] (setting [3]) were 0.41 µM and 110 µM, respectively.
Take `Nc1ccc(OCCCN2CC=C(c3ccc(F)cc3)CC2)cc1` [J]: the figures for the 50% inhibitory concentration (IC50) in test [1] (setting [2]) and in test [1] (setting [3]) were 0.78 µM and 44 µM, respectively.
The matching figures for `COc1ccc(C2=CCN(CCCOc3ccc(NC(C)=O)cc3)CC2)cc1` [K]: 0.91 µM and 76 µM.
The matching figures for `CCC(=O)Nc1ccc(OCCCN2CC=C(c3ccc(F)cc3)CC2)cc1` [L]: 1 µM and 110 µM.
For the compound `OC(COc1ccccc1)CN1CC=C(c2ccccc2)CC1` (stereo not drawn) [M], the 50% inhibitory concentration (IC50) came out at 1.75 µM in test [1] (setting [2]) and 102 µM in test [1] (setting [3]).
Take `CC(=O)c1ccc(OCCCN2CC=C(c3ccccc3)CC2)cc1` [O]: the half-maximal inhibitory concentration (IC50) in test [1] (setting [2]) turned out to be 7.5 µM; in test [1] (setting [3]), 298 µM.
Regarding `OC(COc1ccc2c(c1)CCC2)CN1CC=C(c2ccc(F)cc2)CC1` (stereo not drawn) [compound N], the IC50 worked out at 1.96 µM in test [1] (setting [2]) and 258 µM in test [1] (setting [3]).

For the origin of these results see US5962472A, “Use of 4-phenyl-3,6-dihydro-2H-pyridyl derivatives” (Hoffmann-La Roche Inc., priority 1996, dated 1999).
